Assays:
[1] = tested on: rat peritoneal mast cells; conditions: 0.3 mM; concanavalin A; Chem. Pharm. Bull., 33 (9), 3738 (1985); cited from earlier work
[2] = target: T1, hyaluronidase taken from bovine testicles (Bos taurus, UniProt Q2YDK3); conditions: Chem. Pharm. Bull., 33 (9), 3738 (1985), read-out: "50% enzyme inhibition" concentration; cited from earlier work
T1 construct: purchased Sigma Co; host or cells: bovine testicles
T1 sequence (Q2YDK3 36-553): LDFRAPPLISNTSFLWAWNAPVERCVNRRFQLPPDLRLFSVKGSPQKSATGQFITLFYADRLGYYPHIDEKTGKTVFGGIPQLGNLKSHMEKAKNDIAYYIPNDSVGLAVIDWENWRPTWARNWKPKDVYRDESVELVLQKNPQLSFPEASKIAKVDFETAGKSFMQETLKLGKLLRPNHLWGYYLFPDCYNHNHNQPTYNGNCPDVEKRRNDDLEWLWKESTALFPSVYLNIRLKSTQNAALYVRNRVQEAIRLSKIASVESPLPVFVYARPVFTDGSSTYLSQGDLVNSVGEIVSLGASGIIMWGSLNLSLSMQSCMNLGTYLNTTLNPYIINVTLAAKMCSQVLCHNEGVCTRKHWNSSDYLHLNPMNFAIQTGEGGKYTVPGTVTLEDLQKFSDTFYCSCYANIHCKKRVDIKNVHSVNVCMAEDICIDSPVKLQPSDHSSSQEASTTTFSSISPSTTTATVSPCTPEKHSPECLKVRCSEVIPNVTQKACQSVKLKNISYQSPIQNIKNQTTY

[3] = tested on: rat peritoneal mast cells; test: Histamine liberation from rat peritoneal mast cells by concanavalin A; type: cell-based; conditions: Mast cell, test compound 0.2 mM, phosphatidylserine 3.0 μg/ml
Method: This test was effected in accordance with the method of R. P. Siraganian [J. Immunol., 114, 886 (1974)]. That is, a Locke solution containing phosphatidylserine, a test compound and a suspension of rat peritoneal mast cells was heated for 20 minutes at 37° C. Incidentally, the concentrations of phosphatidylserine and the test compound in the Locke solution were 3.0 μg/ml and 0.2 mM, respectively. A concanavalin A solution was added to the Locke solution, and the mixture was subjected to a reaction for 10 minutes at 37° C. After ice-cooling, the reaction mixture was subjected to centrifugation for 10 minutes at 4° C. Both the supernatant and the precipitate were measured for histamine content by the method of Shore et al. [J. Exp. Ther., 127, 182 (1959)] to determine a ratio of histamine liberated.

[4] = tested on: rat 48-hour homologous PCA reaction; test: Rat 48-hour homologous PCA reaction; type: in vivo; conditions: 200 mg/kg p.o. 60 minutes before antigen; for Amount of colorant which leaked out: control 9.7 ± 1.9
Method: Male SD rats weighing 200-250 g were injected with 0.1 ml of a rat anti-egg albumin serum diluted with a physiological saline solution, intradermally at the back in order to passively sensitize the rats. After 48 hours, 0.5 ml of 1% Evans Blue containing 5 mg of antigen (egg albumin) was administered intravenously. After 30 minutes, each rat was sacrificed by bleeding and the skin was peeled off. Then, the amount of the coloring material in the lesion was determined by the method of Katayama et al. [Microbial. Immunol., 122 (2), 89 (1987)]. Incidentally, each test compound had been administered orally 60 minutes before the antigen administration.

male ddy mice = test: Acute toxicity by intravenous injection; type: in vivo; conditions: 10-500 mg/kg, 10 mice per group
Method: The compound of the present invention was further tested for acute toxicity by intravenous injection using male ddy mice. There was no death when the compound No. 1 of the present invention was administered in an amount of 10-500 mg/kg (each group consisted of 10 mice).

[5] = tested on: rat plantar edema induced by carrageenin; test: Action against rat plantar edema induced by carrageenin; type: in vivo
Method: Male Sprague-Dawley rats weighing 200-250 g were injected s.c. (subcutaneously) with 0.1 ml of carrageenin into the subplantar region of the right hind paw. 60 minutes before the carrageenin administration, a test compound (compound No. 1) had been administered p.o. (orally). […] Thus, the anti-inflammatory effect of the compound of the present invention was proven in this animal test.

[6] = target: T1, hyaluronidase taken from bovine testicles; test: Effect on hyaluronidase activity; type: biochemical; conditions: concentration range 0.01-0.3 mM; bovine testicular hyaluronidase, pH 3.5
Method: 0.8 mg/ml of a hyaluronidase (a product of Sigma Co.) taken from bovine testicles was used as an enzyme. Test compounds (compound Nos. 1, 2, 4, 7, 8, 9 and 13) were dissolved at various concentrations in a 1 M acetate buffer (pH 3.5) and heated at 37° C. for 20 minutes. Then, calcium chloride was added to each of the resulting solutions so that the calcium chloride concentration became 5 mM, and each of the resulting mixtures was heated at 37° C. for 20 minutes.
Thereto was added potassium hyaluronate so that its concentration in the buffer became 2.4 mg/ml, and the mixture was heated at 37° C. for 40 minutes.
After the termination of the reaction, the amount of the substrate hydrolyzed was determined at 585 nm using the Elson-Morgan's procedure, from which there were determined the effects of each test compound at various concentrations on the normal enzymatic reaction.

rat gastric mucosa = type: in vivo; conditions: 50 mg/kg p.o.
Method: The compound No. 1 of the present invention and two known cyclooxygenase inhibitors, i.e. Indometacin and Piroxicam were examined for action on rat gastric mucosa. That is, the compound No. 1, Indometacin or Piroxicam was administered orally to male SD rats (body weight: 200-250 g) which had been fasted for 24 hours. After the administration, the rats were allowed to no food and no water for 48 hours. Then, the stomach of each rat was removed under ether anesthesia and fixed with formalin. The resulting stomach was incised and the length of the mucous ulcer generated in the glandular portion of the stomach was measured using a dissecting microscope (magnification of 10).

Question: What does the source list for COc1ccc(/C=C/C(=O)Nc2ccccc2C(=O)O)cc1OC [Tranilast]?
Answer: inhibition of histamine liberation [1]: about 20%; IC50 [2]: ~230 µM

Question: Which inhibition at 200 µM [3] does the source give for CN1C(C(=O)Nc2c(O)cccc2C(=O)O)=C(O)c2ccccc2S1(=O)=O [No. 8, 4-Hydroxy-2-methyl-N-(2'-carboxy-6'-hydroxyphenyl)-2H-1,2-benzothiazine-3-carboxamido-1,1-dioxide] here?
Answer: Its inhibition at 200 µM is 83.7%.

Question: Which inhibition at 200 µM [3] does the source give for CN1C(C(=O)Nc2cccc(C(=O)O)c2)=C(O)c2ccccc2S1(=O)=O [No. 10, 4-Hydroxy-2-methyl-N-(3'-carboxyphenyl)-2H-1,2-benzothiazine-3-carboxamido-1,1-dioxide] here?
Answer: Its inhibition at 200 µM is 90.7%.

Question: Which “Suppression (%)” value [4] does the source give for CN1C(C(=O)Nc2ccccc2C(=O)O)=C(O)c2ccccc2S1(=O)=O [No. 2, 4-Hydroxy-2-methyl-N-(2'-carboxyphenyl)-2H-1,2-benzothiazine-3-carboxamido-1,1-dioxide] here?
Answer: The value was 29.3%.

Question: What about the “Amount of colorant which leaked out” value [4] of the same compound?
Answer: Its value is 6.8 ± 2.3 μg/site.

Question: And the inhibition at 200 µM [3]?
Answer: Its inhibition at 200 µM is 81.3%.

Question: With CN1C(C(=O)Nc2cc(Cl)ccc2C(=O)O)=C(O)c2ccccc2S1(=O)=O [No. 4, 4-Hydroxy-2-methyl-N-(2'-carboxy-5'-chlorophenyl)-2H-1,2-benzothiazine-3-carboxamido-1,1-dioxide] as the compound, how does the inhibition at 200 µM [3] read?
Answer: Its inhibition at 200 µM is 85.1%.

Question: What does the source list for CN1C(C(=O)Nc2ccccc2-c2nn[nH]n2)=C(O)c2ccccc2S1(=O)=O [No. 1, 4-hydroxy-2-methyl-N-[2'-(tetrazo-5"-yl)phenyl]-2H-1,2-benzothiazine-3-carboxamido-1,1-dioxide]?
Answer: Suppression (%) [4]: 65.1%; Amount of colorant which leaked out [4]: 3.4 ± 1.3 μg/site; death in acute toxicity test (male ddy mice): no death; swelling percent ([5]; 200 mg/kg p.o. 60 min before carrageenin, 30 minutes after carrageenin administration, control 18.2%): 8.0%; inhibition (%) of edema, in words ([5]; 200 mg/kg p.o., 1, 1.5, 2 and 3 hours after carrageenin administration): About the same inhibition; inhibition of edema ([5]; 200 mg/kg p.o., 30 minutes after carrageenin administration): 54%; inhibition at 200 µM [3]: 93.9%

Question: With Cc1cccc(NC(=O)C2=C(O)c3ccccc3S(=O)(=O)N2C)c1C(=O)O [No. 5, 4-Hydroxy-2-methyl-N-(2'-carboxy-3'-methylphenyl)-2H-1,2-benzothiazine-3-carboxamido-1,1-dioxide] as the compound, how does the inhibition at 200 µM [3] read?
Answer: The inhibition at 200 µM was 85.2%.

Question: With CN1C(C(=O)Nc2ccc(C(=O)O)cc2)=C(O)c2ccccc2S1(=O)=O [No. 11, 4-Hydroxy-2-methyl-N-(4'-carboxyphenyl)-2H-1,2-benzothiazine-3-carboxamido-1,1-dioxide] as the compound, how does the inhibition at 200 µM [3] read?
Answer: The inhibition at 200 µM was 60.3%.

Question: For CN1C(C(=O)Nc2ccccc2)=C(O)c2ccccc2S1(=O)=O [4-hydroxy-2-methyl-N-(phenyl)-2H-1,2-benzothiazine-3-carboxamido-1,1-dioxide], which “effect on hyaluronidase activity” value [6] is on record?
Answer: The value was “no effect”.

Question: Which inhibition at 200 µM [3] does the source give for CN1C(C(=O)Nc2ccc(Cl)cc2C(=O)O)=C(O)c2ccccc2S1(=O)=O [No. 3, 4-Hydroxy-2-methyl-N-(2'-carboxy-4'-chlorophenyl)-2H-1,2-benzothiazine-3-carboxamido-1,1-dioxide] here?
Answer: The inhibition at 200 µM was 65%.

Question: For COc1ccc2c(c1)c(CC(=O)O)c(C)n2C(=O)c1ccc(Cl)cc1 [Indometacin], which “ulcer formation, in words” value (rat gastric mucosa) is on record?
Answer: The value was “very serious ulcer”.

Question: And the “Ulcer index mean S.E.” value (rat gastric mucosa; rats fasted 24 hours, 48 hours after administration)?
Answer: The value was 42.8 ± 8.7.

Question: Which inhibition at 200 µM [3] does the source give for CN1C(C(=O)Nc2cc([N+](=O)[O-])ccc2C(=O)O)=C(O)c2ccccc2S1(=O)=O [No. 9, 4-Hydroxy-2-methyl-N-(2'-carboxy-5'-nitrophenyl)-2H-1,2-benzothiazine-3-carboxamido-1,1-dioxide] here?
Answer: The inhibition at 200 µM was 106%.

Question: With CN1C(C(=O)Nc2ccccn2)=C(O)c2ccccc2S1(=O)=O [Piroxicam] as the compound, how does the “effect on hyaluronidase activity” value [6] read?
Answer: Its value is “no effect”.

Question: With CN1C(C(=O)Nc2ccc(O)cc2C(=O)O)=C(O)c2ccccc2S1(=O)=O [No. 7, 4-Hydroxy-2-methyl-N-(2'-carboxy-4'-hydroxyphenyl)-2H-1,2-benzothiazine-3-carboxamido-1,1-dioxide] as the compound, how does the inhibition at 200 µM [3] read?
Answer: The inhibition at 200 µM was 86%.

Question: Which inhibition at 200 µM [3] does the source give for Cc1ccc(NC(=O)C2=C(O)c3ccccc3S(=O)(=O)N2C)c(C(=O)O)c1 [No. 6, 4-Hydroxy-2-methyl-N-(2'-carboxy-4'-methylphenyl)-2H-1,2-benzothiazine-3-carboxamido-1,1-dioxide] here?
Answer: Its inhibition at 200 µM is 63%.

From US5004742A, “Benzothiazine-1,1-dioxide derivatives” (Nippon Hypox Laboratories Incorporated, priority 1989, dated 1991)
